In patent US20230146455A1, “TREATMENT OF INFLAMMATORY DISEASES WITH PEPTIDES AND PHARMACEUTICAL COMPOSITIONS” (Yuyu Pharma, Inc., priority 2020, published 2023):
Values joined by “and” are separate entries in the source; they are usually repeats but may differ in a detail not shown here. Equal values may be shown once. Where a SMILES comes first, the peptide text is derived from it. [ ]: non-standard residue; d: D form. Hyp = O=C(O)[C@@H]1C[C@@H](O)CN1

Test system: IL-2
Assay: Example 9 Luminex, LPS hPBMCs: IL-2
Type: cell-based, human
Method: Treatment Human PBMCs were pretreated with YY-101, YDE-011 and YDE-043 or reference compound; Xiidra® at various concentration (ranging from 1 nM to 100 uM) for 2 h before stimulation. An equal volume of 0.5% DMSO was used as a vehicle control. Then, the cells were treated with LPS at 5 ug/ml. The supernatants from treated cells were harvested at 24 h and placed in a 96 well for Luminex cytokine & chemokine profiling using a Luminex 200 multiplex assay (Luminex; R&D system, USA).
The main study arm with triplicate wells per group in a 24-well plate: • 1. Blank • 2. PBMC: 0.5% DMSO • 3. PBMC+LPS (5 ug/ml) • 4. PBMC+YY-101 100 uM • 5. PBMC+YY-101 10 uM • 6. PBMC+YY-101 1 uM • 7. PBMC+YY-101 0.1 uM • 8. PBMC+YY-101 0.01 uM • 9. PBMC+LPS (5 ug/ml)+Xiidra®100 uM • 10. PBMC+LPS (5 ug/ml)+Xiidra® 10 uM • 11. PBMC+LPS (5 ug/ml)+Xiidra® 1 uM • 12. PBMC+LPS (5 ug/ml)+Xiidra®0.1 uM • 13. PBMC+LPS (5 ug/ml)+Xiidra®0.01 uM • 14. PBMC+LPS (5 ug/ml)+Xiidra®0.001 uM • 15. PBMC+LPS (5 ug/ml)+YY-101 100 uM • 16. PBMC+LPS (5 ug/ml)+YY-101 10 uM • 17. PBMC+LPS (5 ug/ml)+YY-101 1 uM • 18. PBMC+LPS (5 ug/ml)+YY-101 0.1 uM • 19. PBMC+LPS (5 ug/ml)+YY-101 0.01 uM • 20. PBMC+LPS (5 ug/ml)+YY-101 0.001 uM • 21. PBMC+LPS (5 ug/ml)+YDE-011 100 uM • 22. PBMC+LPS (5 ug/ml)+YDE-011 10 uM • 23. PBMC+LPS (5 ug/ml)+YDE-011 1 uM • 24. PBMC+LPS (5 ug/ml)+YDE-011 0.1 uM • 25. PBMC+LPS (5 ug/ml)+YDE-011 0.01 uM • 26. PBMC+LPS (5 ug/ml)+YDE-011 0.001 uM • 27. PBMC+LPS (5 ug/ml)+YDE-043 100 uM • 28. PBMC+LPS (5 ug/ml)+YDE-043 10 uM • 29. PBMC+LPS (5 ug/ml)+YDE-043 1 uM • 30. PBMC+LPS (5 ug/ml)+YDE-043 0.1 uM • 31. PBMC+LPS (5 ug/ml)+YDE-043 0.01 uM • 32. PBMC+LPS (5 ug/ml)+YDE-043 0.001 uM
Multiplex assay was used to measure 30 cytokines and chemokines. The 1:2, 1:10 and 1:200 diluted cell supernatant and serial dilution of the standard were dispensed into a 96 well plate at 50 ul/well. Then, the pre-mixed cocktail of antibody-coated magnetic beads was dispensed at 50 ul/well and incubated at room temperature for 2 h in a horizontal orbital microplate shaker at 800±500 rpm. The beads were washed using a magnetic device to prevent loss. The biotin-antibody was dispensed in 50 ul of each well and incubated at room temperature for 1 h in a shaker at 800±500 rpm. After washing, streptavidin-PE was added at 50 ul/well and incubated at room temperature for 30 min in a shaker under the same conditions. Finally, after washing, wash buffer (100 ul/well) was added to the plate and incubated in a shaker for 2 min. The Luminex™ 200 setting were set according to the manufacturer's protocol. The data was calculated with a standard five-parameter logistic nonlinear regression analysis of the data (xPonent software 4.2, USA). The levels of cytokine/chemokine are normalized to the live cell counts (1×10^5 cells/mL) and presented as concentrations per mL (pg/mL or ng/mL).

[1] = PBMC + LPS(5 ug/ml) + test article 0.001 uM, Mean
[2] = PBMC + LPS(5 ug/ml) + test article 0.001 uM, single replicates
[3] = PBMC + LPS(5 ug/ml) + test article 0.01 uM, Mean
[4] = PBMC + LPS(5 ug/ml) + test article 0.01 uM, single replicates
[5] = PBMC + LPS(5 ug/ml) + test article 0.1 uM, Mean
[6] = PBMC + LPS(5 ug/ml) + test article 0.1 uM, single replicates
[7] = PBMC + LPS(5 ug/ml) + test article 1 uM, Mean
[8] = PBMC + LPS(5 ug/ml) + test article 1 uM, single replicates
[9] = PBMC + LPS(5 ug/ml) + test article 10 uM, Mean
[10] = PBMC + LPS(5 ug/ml) + test article 10 uM, single replicates
[11] = PBMC + LPS(5 ug/ml) + test article 100 uM, Mean
[12] = PBMC + LPS(5 ug/ml) + test article 100 uM, single replicates

SMILES | IL-2 conc/live cell [1] [pg/10^5] | MFI, Bead name: IL-2 [1] | IL-2 conc/live cell [2] [pg/10^5] | MFI, Bead name: IL-2 [2] | IL-2 conc/live cell [3] [pg/10^5] | MFI, Bead name: IL-2 [3] | IL-2 conc/live cell [4] [pg/10^5] | MFI, Bead name: IL-2 [4] | IL-2 conc/live cell [5] [pg/10^5] | MFI, Bead name: IL-2 [5] | IL-2 conc/live cell [6] [pg/10^5] | MFI, Bead name: IL-2 [6] | IL-2 conc/live cell [7] [pg/10^5] | MFI, Bead name: IL-2 [7] | IL-2 conc/live cell [8] [pg/10^5] | MFI, Bead name: IL-2 [8] | IL-2 conc/live cell [9] [pg/10^5] | MFI, Bead name: IL-2 [9] | IL-2 conc/live cell [10] [pg/10^5] | MFI, Bead name: IL-2 [10] | other results
CC(C)C[C@H](NC(=O)CNC(=O)[C@H](CC(C)C)NC(=O)[C@H](CCC(N)=O)NC(=O)CNC(=O)[C@@H]1C[C@@H](O)CN1)C(=O)N[C@@H](C)C(=O)NCC(=O)N1CCC[C@H]1C(=O)N[C@@H](CCCCN)C(=O)O [YDE-011] (H-[Hyp]GQLGLAGPK-OH) | 0.0 | 4.0 | 0.0 | 4.0 | 0.0 | 5.0 | 0.0 | 5.0 | 0.0 | 6.7 | 0.0 | 7.0 and 8.0 and 5.0 | 0.0 | 5.3 | 0.0 | 6.0 (2×) and 4.0 | 0.0 | 5.3 | 0.0 | 6.0 and 5.0 (2×) | IL-2 conc/live cell [11]: 0.0 pg/10^5; MFI, Bead name: IL-2 [11]: 4.0; IL-2 conc/live cell [12]: 0.0 pg/10^5; MFI, Bead name: IL-2 [12]: 4.0 and 2.0 and 6.0
CC(C)C[C@H](NC(=O)[C@H](CCC(N)=O)NC(=O)CNC(=O)[C@@H]1C[C@@H](O)CN1)C(=O)NCC(=O)O [YDE-043] (H-[Hyp]GQLG-OH; N-terminus and C-terminus assumed) | 0.0 | 6.3 | 0.0 | 3.0 and 8.0 (2×) | 0.0 | 4.7 | 0.0 | 6.0 and 4.0 (2×) | 0.0 | 5.7 | 0.0 | 6.0 and 3.0 and 8.0 | 0.0 | 3.0 | 0.0 | 3.0 and 2.0 and 4.0 | 0.0 | 3.3 | 0.0 | 3.0 and 2.0 and 5.0 | IL-2 conc/live cell [11]: 0.0 pg/10^5; MFI, Bead name: IL-2 [11]: 2.0; IL-2 conc/live cell [12]: 0.0 pg/10^5; MFI, Bead name: IL-2 [12]: 2.0
